Test results published in PubChem BioAssay (NCI).
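Values below derive from 48-hour exposures of cells grown in 96-well plates, with endpoints linearly interpolated between the two concentrations bracketing the appropriate inhibition level. TGI denotes the concentration required for complete inhibition of growth.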

Tests used:
Assay in all cases: NCI tumour cell line growth inhibition, 48 h
UACC-62 melanoma = test system: UACC-62 melanoma
SK-OV-3 ovarian = test system: SK-OV-3 ovarian
M19-MEL melanoma = test system: M19-MEL melanoma
EKVX NSCLC = test system: EKVX NSCLC
A498 renal = test system: A498 renal
MOLT-4 leukemia = test system: MOLT-4 leukemia
SNB-19 CNS = test system: SNB-19 CNS
OVCAR-8 ovarian = test system: OVCAR-8 ovarian
U251 CNS = test system: U251 CNS
M14 melanoma = test system: M14 melanoma
OVCAR-5 ovarian = test system: OVCAR-5 ovarian
RXF 393 renal = test system: RXF 393 renal
HT29 colon = test system: HT29 colon
RXF-631 renal = test system: RXF-631 renal
KM20L2 colon = test system: KM20L2 colon
ACHN renal = test system: ACHN renal
CCRF-CEM leukemia = test system: CCRF-CEM leukemia
DMS 114 small cell lung = test system: DMS 114 small cell lung
UO-31 renal = test system: UO-31 renal
DMS 273 small cell lung = test system: DMS 273 small cell lung
NCI-H460 lung = test system: NCI-H460 lung
NCI-H522 lung = test system: NCI-H522 lung
SK-MEL-28 melanoma = test system: SK-MEL-28 melanoma
HCT-116 colon = test system: HCT-116 colon
SNB-78 CNS = test system: SNB-78 CNS
HOP-92 NSCLC = test system: HOP-92 NSCLC
SF-295 CNS = test system: SF-295 CNS
UACC-257 melanoma = test system: UACC-257 melanoma
HOP-62 NSCLC = test system: HOP-62 NSCLC
TK-10 renal = test system: TK-10 renal
NCI-H23 lung = test system: NCI-H23 lung
A549 NSCLC = test system: A549 NSCLC
KM12 colon = test system: KM12 colon
SR leukemia = test system: SR leukemia
IGROV1 ovarian = test system: IGROV1 ovarian
HL-60(TB) leukemia = test system: HL-60(TB) leukemia
XF 498 CNS = test system: XF 498 CNS
SW-620 colon = test system: SW-620 colon
LOX IMVI melanoma = test system: LOX IMVI melanoma
SN12C renal = test system: SN12C renal
SK-MEL-5 melanoma = test system: SK-MEL-5 melanoma
LXFL 529 NSCLC = test system: LXFL 529 NSCLC
CAKI-1 renal = test system: CAKI-1 renal
HCT-15 colon = test system: HCT-15 colon
SF-268 CNS = test system: SF-268 CNS
K-562 leukemia = test system: K-562 leukemia
NCI-H226 lung = test system: NCI-H226 lung
SK-MEL-2 melanoma = test system: SK-MEL-2 melanoma
SF-539 CNS = test system: SF-539 CNS
RPMI-8226 leukemia = test system: RPMI-8226 leukemia
786-0 renal = test system: 786-0 renal
MALME-3M melanoma = test system: MALME-3M melanoma
OVCAR-3 ovarian = test system: OVCAR-3 ovarian
SNB-75 CNS = test system: SNB-75 CNS
OVCAR-4 ovarian = test system: OVCAR-4 ovarian
HCC-2998 colon = test system: HCC-2998 colon
COLO 205 colon = test system: COLO 205 colon
HOP-18 NSCLC = test system: HOP-18 NSCLC
DLD-1 colon = test system: DLD-1 colon

Measured: TGI

NC(CCc1nc(-c2cccc([N+](=O)[O-])c2)cs1)C(=O)O (stereo unspecified)
not listed: XF 498 CNS | SW-620 colon | LOX IMVI melanoma | SN12C renal | SK-MEL-5 melanoma | LXFL 529 NSCLC | CAKI-1 renal | HCT-15 colon | SF-268 CNS | K-562 leukemia | NCI-H226 lung | SK-MEL-2 melanoma | SF-539 CNS | RPMI-8226 leukemia | 786-0 renal | MALME-3M melanoma | OVCAR-3 ovarian | SNB-75 CNS | OVCAR-4 ovarian | HCC-2998 colon | COLO 205 colon | HOP-18 NSCLC | DLD-1 colon
> 100 µM: all other assays above

COc1cc(C2C(C(=O)NCc3ccccc3)=C(C)NC(C)=C2C(=O)NCc2ccccc2)ccc1O
83.2 µM: U251 CNS
51.6 µM: HCC-2998 colon
38 µM: HT29 colon
54.4 µM: SR leukemia
77.8 µM: RXF 393 renal
98.3 µM: CCRF-CEM leukemia
75.1 µM: CAKI-1 renal
89.2 µM: HOP-92 NSCLC
61.2 µM: SK-MEL-2 melanoma
41 µM: SF-539 CNS
66.5 µM: HL-60(TB) leukemia
73.6 µM: RPMI-8226 leukemia
90.5 µM: NCI-H23 lung
55.8 µM: MOLT-4 leukemia
not listed: SK-OV-3 ovarian | NCI-H522 lung | HOP-62 NSCLC | KM12 colon | COLO 205 colon | HOP-18 NSCLC | DLD-1 colon
> 100 µM: all other assays above

COC(=O)c1cc(O)ccc1O
not listed: A498 renal | KM20L2 colon | HCT-116 colon | NCI-H23 lung | SR leukemia | HOP-18 NSCLC | DLD-1 colon
> 100 µM: all other assays above

COC(=O)C(=O)C(C(=O)OC)C(=O)C(=O)Nc1cc(Cl)c(C)cc1S(=O)(=O)O (stereo unspecified)
not listed: RXF-631 renal | HOP-92 NSCLC | RPMI-8226 leukemia
> 100 µM: all other assays above
